Source: patent US20080009418A1, “Selective Inhibitors” (Alchemia LTD., priority 2004, published 2008)

Legend:
Human δ-opioid (DOP) = target: T1, Human δ-opioid (DOP) (Homo sapiens, UniProt P41143); test: Radioligand binding, human δ-opioid (DOP) membranes, FlashPlate, [3H]-Bremazocine; conditions: compound at 10 μM, [3H]-Bremazocine
T1 construct: purchased Perkin Elmer Biosignal
Summary of the method: (§1)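 Cloned human receptor membranes were coated onto FlashPlate wells and incubated with radioligand and compound (added from a 0.5 mM DMSO daughter plate) for 1 hour at room temperature in the dark. Scintillation counting gave percent inhibition, with DMSO defining total and reference ligand defining non-specific binding.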

Human κ-Opioid (KOP) = target: T2, Human κ-Opioid (KOP) (Homo sapiens, UniProt P41145); test: Radioligand binding, human κ-opioid (KOP) membranes, filtration, [3H]-Diprenorphine; conditions: compound at 10 μM, [3H]-Diprenorphine
T2 construct: purchased Perkin Elmer Biosignal
Summary of the method: (§2)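 Percent inhibition of radioligand binding measured on recombinant human membranes: NK1 with [125I]-Substance P, KOP with [3H]-Diprenorphine. Incubation 1 h at room temperature, then harvest onto 0.3% PEI-soaked filters, cold Tris-HCl pH 7.4 washes and scintillation counting; non-specific binding from reference ligand wells.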

Human Melanocortin (MC3) = target: T3, Human Melanocortin (MC3) (Homo sapiens, UniProt P41968); test: Radioligand binding, human melanocortin MC3 membranes, FlashPlate, [125I]-NDP-αMSH; conditions: compound at 10 μM, [125I]-NDP-αMSH
T3 construct: purchased Perkin Elmer Biosignal
Summary of the method: as §1

Human Melanocortin (MC4) = target: T4, Human Melanocortin (MC4) (Homo sapiens, UniProt P32245); test: Radioligand binding, human melanocortin MC4 membranes, FlashPlate, [125I]-NDP-αMSH; conditions: compound at 10 μM, [125I]-NDP-αMSH
T4 construct: purchased Perkin Elmer Biosignal
Summary of the method: as §1

Human melanocortin (MC5) = target: T5, Human melanocortin (MC5) (Homo sapiens, UniProt P33032); test: Radioligand binding, human melanocortin MC5 membranes, FlashPlate, [125I]-NDP-αMSH; conditions: compound at 10 μM, [125I]-NDP-αMSH
T5 construct: purchased Perkin Elmer Biosignal
Summary of the method: as §1

[1] = target: T6, Human melanin-concentrating hormone (MCH1) (Homo sapiens, UniProt Q99705); test: Radioligand binding, human melanin-concentrating hormone MCH1 membranes, FlashPlate, [125I]-S36057; conditions: compound at 10 μM
T6 construct: purchased Perkin Elmer Biosignal
Summary of the method: as §1

Human μ-opioid (MOP) = target: T7, Human μ-opioid (MOP) (Homo sapiens, UniProt P35372); test: Radioligand binding, human μ-opioid (MOP) membranes, FlashPlate, [3H]-Naloxone; conditions: compound at 10 μM, [3H]-Naloxone
T7 construct: purchased Perkin Elmer Biosignal
Summary of the method: as §1

Human neurokinin (NK1) = target: T8, Human neurokinin (NK1) (Homo sapiens, UniProt P25103); test: Radioligand binding, human neurokinin NK1 membranes, filtration, [125I]-Substance P; conditions: compound at 10 μM, [125I]-Substance P
T8 construct: purchased Perkin Elmer Biosignal
Summary of the method: as §2

[2] = target: T9, Human neuropeptide Y (NPY-Y1) (Homo sapiens, UniProt P25929); test: Radioligand binding, human neuropeptide Y NPY-Y1 membranes, FlashPlate, [125I]-PYY; conditions: compound at 10 μM, [125I]-PYY
T9 construct: purchased Perkin Elmer Biosignal
T9 sequence (P25929 1-384): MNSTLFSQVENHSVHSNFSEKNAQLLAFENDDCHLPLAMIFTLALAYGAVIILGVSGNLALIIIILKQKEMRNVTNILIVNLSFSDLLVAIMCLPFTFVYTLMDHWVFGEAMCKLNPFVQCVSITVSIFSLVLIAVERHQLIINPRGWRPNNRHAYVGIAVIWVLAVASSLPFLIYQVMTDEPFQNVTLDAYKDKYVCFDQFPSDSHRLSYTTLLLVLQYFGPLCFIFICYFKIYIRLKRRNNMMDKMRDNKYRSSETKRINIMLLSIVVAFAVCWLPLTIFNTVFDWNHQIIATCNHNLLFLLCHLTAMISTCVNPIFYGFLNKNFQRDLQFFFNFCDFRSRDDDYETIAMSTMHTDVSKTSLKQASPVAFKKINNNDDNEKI
Summary of the method: as §1

Human opioid (ORL1) = target: T10, Human opioid (ORL1) (Homo sapiens, UniProt P41146); test: Radioligand binding, human opioid ORL1 membranes, FlashPlate, [125I]-Nociceptin; conditions: compound at 10 μM, [125I]-Nociceptin
T10 construct: purchased Perkin Elmer Biosignal
Summary of the method: as §1

Mouse urotensin (mUR2) = target: T11, Mouse urotensin (mUR2) (Mus musculus, UniProt Q8VIH9); test: Radioligand binding, mouse urotensin mUR2 membranes, FlashPlate, [125I]-Urotensin II; conditions: compound at 10 μM, [125I]-Urotensin II
T11 construct: purchased Perkin Elmer Biosignal
T11 sequence (Q8VIH9 1-385): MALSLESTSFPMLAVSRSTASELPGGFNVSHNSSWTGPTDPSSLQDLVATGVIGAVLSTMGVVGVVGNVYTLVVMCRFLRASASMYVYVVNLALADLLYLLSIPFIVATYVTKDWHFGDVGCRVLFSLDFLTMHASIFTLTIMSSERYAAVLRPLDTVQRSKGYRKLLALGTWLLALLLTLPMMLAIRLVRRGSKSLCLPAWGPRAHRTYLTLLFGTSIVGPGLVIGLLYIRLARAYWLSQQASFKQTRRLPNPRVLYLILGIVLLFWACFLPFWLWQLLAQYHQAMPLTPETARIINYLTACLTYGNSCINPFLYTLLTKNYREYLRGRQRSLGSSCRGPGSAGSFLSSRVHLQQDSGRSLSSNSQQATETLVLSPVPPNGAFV
Summary of the method: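 Cloned mouse urotensin (mUR2) receptor membranes from Perkin Elmer Biosignal were immobilized in FlashPlate microplates using a proprietary coating. Each well got 19.5 μl buffer, then 0.5 μl of DMSO, reference ligand, or compound. Adding 5 μl of [125I]-Urotensin II, diluted to 5× final concentration in binding buffer, started binding. Plates were sealed with TopSeal-A and incubated 1 hour at room temperature in the dark. Wells were counted for 30 seconds each on a TopCount after a 60-second delay, and percentage inhibition was calculated.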

T4 sequence (P32245 whole entry): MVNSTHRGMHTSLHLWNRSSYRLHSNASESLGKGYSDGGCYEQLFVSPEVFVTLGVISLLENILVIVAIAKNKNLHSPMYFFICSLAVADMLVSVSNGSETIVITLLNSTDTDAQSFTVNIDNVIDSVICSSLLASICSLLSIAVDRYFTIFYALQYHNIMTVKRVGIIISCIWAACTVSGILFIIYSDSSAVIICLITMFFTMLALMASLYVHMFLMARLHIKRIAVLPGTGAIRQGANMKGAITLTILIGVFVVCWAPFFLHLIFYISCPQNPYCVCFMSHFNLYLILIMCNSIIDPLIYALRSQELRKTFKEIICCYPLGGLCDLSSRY
T2 sequence (P41145 whole entry): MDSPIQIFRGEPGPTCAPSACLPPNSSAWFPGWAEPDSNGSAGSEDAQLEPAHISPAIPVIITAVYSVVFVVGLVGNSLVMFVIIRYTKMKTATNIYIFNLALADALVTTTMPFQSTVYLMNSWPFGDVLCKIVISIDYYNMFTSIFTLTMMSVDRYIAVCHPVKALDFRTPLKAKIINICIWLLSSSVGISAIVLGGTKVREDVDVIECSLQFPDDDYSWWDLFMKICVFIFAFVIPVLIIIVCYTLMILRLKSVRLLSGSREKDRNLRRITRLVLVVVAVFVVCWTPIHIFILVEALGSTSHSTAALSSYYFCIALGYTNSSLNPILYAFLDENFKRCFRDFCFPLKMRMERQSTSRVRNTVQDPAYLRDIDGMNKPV
T8 sequence (P25103 whole entry): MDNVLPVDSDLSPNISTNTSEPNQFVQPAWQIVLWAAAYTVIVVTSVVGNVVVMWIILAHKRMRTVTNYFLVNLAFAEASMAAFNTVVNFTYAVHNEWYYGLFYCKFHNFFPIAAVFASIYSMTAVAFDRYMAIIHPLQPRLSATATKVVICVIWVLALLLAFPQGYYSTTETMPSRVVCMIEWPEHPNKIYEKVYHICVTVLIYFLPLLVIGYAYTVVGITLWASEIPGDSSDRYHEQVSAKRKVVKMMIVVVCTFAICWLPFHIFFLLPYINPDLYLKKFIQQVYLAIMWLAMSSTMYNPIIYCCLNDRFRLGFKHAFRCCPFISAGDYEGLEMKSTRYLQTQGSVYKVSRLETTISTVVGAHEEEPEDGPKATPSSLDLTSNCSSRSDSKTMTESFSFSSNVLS
T3 sequence (P41968 whole entry): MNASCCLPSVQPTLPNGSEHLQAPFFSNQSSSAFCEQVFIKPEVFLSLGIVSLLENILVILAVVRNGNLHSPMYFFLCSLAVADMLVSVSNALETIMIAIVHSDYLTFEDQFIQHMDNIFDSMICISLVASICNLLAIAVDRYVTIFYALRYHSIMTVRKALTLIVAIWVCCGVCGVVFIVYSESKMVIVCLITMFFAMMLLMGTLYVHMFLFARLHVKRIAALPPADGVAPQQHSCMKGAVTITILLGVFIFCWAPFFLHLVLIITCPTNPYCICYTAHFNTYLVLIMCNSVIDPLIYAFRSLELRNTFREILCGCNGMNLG
T5 sequence (P33032 whole entry): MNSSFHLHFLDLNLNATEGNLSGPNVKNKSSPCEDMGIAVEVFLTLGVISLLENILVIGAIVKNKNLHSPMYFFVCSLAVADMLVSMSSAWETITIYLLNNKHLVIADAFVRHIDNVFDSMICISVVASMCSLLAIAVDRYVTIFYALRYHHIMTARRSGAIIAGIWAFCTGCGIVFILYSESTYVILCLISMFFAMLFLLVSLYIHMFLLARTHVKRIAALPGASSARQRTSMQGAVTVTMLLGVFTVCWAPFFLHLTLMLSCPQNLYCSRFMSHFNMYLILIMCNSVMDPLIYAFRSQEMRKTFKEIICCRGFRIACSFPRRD
T10 sequence (P41146 whole entry): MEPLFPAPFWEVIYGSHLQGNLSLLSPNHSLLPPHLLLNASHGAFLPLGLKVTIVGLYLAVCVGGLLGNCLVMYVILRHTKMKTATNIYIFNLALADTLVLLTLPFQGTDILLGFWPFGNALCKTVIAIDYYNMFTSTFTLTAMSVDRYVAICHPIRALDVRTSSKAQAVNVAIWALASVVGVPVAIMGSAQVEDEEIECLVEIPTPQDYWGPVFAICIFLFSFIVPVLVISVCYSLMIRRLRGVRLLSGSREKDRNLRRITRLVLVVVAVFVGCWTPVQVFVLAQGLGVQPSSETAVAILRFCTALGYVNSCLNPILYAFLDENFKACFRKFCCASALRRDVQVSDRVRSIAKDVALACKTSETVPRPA
T6 sequence (Q99705 whole entry): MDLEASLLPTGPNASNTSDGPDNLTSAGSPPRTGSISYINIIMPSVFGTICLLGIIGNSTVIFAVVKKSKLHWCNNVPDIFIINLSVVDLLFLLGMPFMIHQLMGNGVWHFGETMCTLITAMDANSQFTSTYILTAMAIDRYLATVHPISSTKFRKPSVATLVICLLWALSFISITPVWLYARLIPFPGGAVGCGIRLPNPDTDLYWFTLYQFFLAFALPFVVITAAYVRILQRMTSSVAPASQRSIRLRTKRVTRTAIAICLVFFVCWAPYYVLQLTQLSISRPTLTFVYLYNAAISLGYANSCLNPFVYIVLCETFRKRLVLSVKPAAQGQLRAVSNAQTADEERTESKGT
T7 sequence (P35372 whole entry): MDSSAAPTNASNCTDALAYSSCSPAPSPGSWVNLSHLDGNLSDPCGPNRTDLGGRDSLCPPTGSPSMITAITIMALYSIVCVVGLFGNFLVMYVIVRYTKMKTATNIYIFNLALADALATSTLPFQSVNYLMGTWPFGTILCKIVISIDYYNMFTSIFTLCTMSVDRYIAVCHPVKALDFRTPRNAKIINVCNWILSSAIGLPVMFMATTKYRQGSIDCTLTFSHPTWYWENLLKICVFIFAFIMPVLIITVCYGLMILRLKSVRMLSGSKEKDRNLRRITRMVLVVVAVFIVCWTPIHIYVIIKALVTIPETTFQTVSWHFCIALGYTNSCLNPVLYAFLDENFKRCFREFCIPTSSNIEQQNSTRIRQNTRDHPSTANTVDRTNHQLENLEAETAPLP
T1 sequence (P41143 whole entry): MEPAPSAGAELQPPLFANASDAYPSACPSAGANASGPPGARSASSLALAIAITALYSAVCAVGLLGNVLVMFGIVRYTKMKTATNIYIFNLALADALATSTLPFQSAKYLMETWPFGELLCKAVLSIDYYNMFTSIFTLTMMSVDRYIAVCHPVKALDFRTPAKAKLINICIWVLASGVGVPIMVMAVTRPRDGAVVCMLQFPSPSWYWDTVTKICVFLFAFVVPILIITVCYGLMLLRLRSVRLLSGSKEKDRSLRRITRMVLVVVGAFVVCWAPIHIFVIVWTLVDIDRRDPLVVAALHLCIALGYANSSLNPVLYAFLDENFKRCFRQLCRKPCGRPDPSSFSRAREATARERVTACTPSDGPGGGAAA

SMILES: CO[C@H]1[C@H](O)[C@@H](COCc2ccccc2)OC(OCCc2ccccc2)[C@@H]1NC(=O)CCNC(=N)N (stereo partly shown) [compound 117]
- A1 radioligand binding, percentage inhibition (Human δ-opioid (DOP)): − (“−” indicates less than 50% inhibition at 10 μM)
- A2 radioligand binding, percentage inhibition (Human κ-Opioid (KOP)): + (“+” indicates greater than 50% inhibition at 10 μM)
- A3 radioligand binding, percentage inhibition (Human Melanocortin (MC3)): − (“−” indicates less than 50% inhibition at 10 μM)
- A4 radioligand binding, percentage inhibition (Human Melanocortin (MC4)): − (“−” indicates less than 50% inhibition at 10 μM)
- A5 radioligand binding, percentage inhibition (Human melanocortin (MC5)): − (“−” indicates less than 50% inhibition at 10 μM)
- A6 radioligand binding, percentage inhibition ([1]; [125I]-S36057): − (“−” indicates less than 50% inhibition at 10 μM)
- A7 radioligand binding, percentage inhibition (Human μ-opioid (MOP)): − (“−” indicates less than 50% inhibition at 10 μM)
- A8 radioligand binding, percentage inhibition (Human neurokinin (NK1)): + (“+” indicates greater than 50% inhibition at 10 μM)
- A9 radioligand binding, percentage inhibition [2]: − (“−” indicates less than 50% inhibition at 10 μM)
- A10 radioligand binding, percentage inhibition (Human opioid (ORL1)): − (“−” indicates less than 50% inhibition at 10 μM)
- A11 radioligand binding, percentage inhibition (Mouse urotensin (mUR2)): − (“−” indicates less than 50% inhibition at 10 μM)

SMILES: COCC1OC(OCCc2ccccc2)C(NC(=O)CCCN)C(OCc2ccccc2)C1O (stereo not shown) [compound 217]
- A1: inhibition of radioligand binding (Human δ-opioid (DOP); FlashPlate): − (“−” indicates less than 50% inhibition at 10 μM)
- A2: inhibition of radioligand binding (Human κ-Opioid (KOP); filtration): − (“−” indicates less than 50% inhibition at 10 μM)
- A3: inhibition of radioligand binding (Human Melanocortin (MC3); FlashPlate): − (“−” indicates less than 50% inhibition at 10 μM)
- A4: inhibition of radioligand binding (Human Melanocortin (MC4); FlashPlate): − (“−” indicates less than 50% inhibition at 10 μM)
- A5: inhibition of radioligand binding (Human melanocortin (MC5); FlashPlate): − (“−” indicates less than 50% inhibition at 10 μM)
- A6: inhibition of radioligand binding ([1]; [125I]-S36057, FlashPlate): − (“−” indicates less than 50% inhibition at 10 μM)
- A7: inhibition of radioligand binding (Human μ-opioid (MOP); FlashPlate): − (“−” indicates less than 50% inhibition at 10 μM)
- A8: inhibition of radioligand binding (Human neurokinin (NK1); filtration): + (“+” indicates greater than 50% inhibition at 10 μM)
- A9: inhibition of radioligand binding ([2]; FlashPlate): − (“−” indicates less than 50% inhibition at 10 μM)
- A10: inhibition of radioligand binding (Human opioid (ORL1); FlashPlate): − (“−” indicates less than 50% inhibition at 10 μM)
- A11: inhibition of radioligand binding (Mouse urotensin (mUR2); FlashPlate): − (“−” indicates less than 50% inhibition at 10 μM)

SMILES: N=C(N)NCCC(=O)N[C@H]1C(OCc2ccc(Cl)cc2)O[C@H](COCc2ccc3ccccc3c2)[C@@H](O)[C@@H]1OCc1ccc2ccccc2c1 (stereo partly shown) [compound 529]
- A1: inhibition of radioligand binding, human δ-opioid (DOP) (Human δ-opioid (DOP)): − (“−” indicates less than 50% inhibition at 10 μM)
- A2: inhibition of radioligand binding, human κ-opioid (KOP) (Human κ-Opioid (KOP); 10 µM): + (“+” indicates greater than 50% inhibition at 10 μM)
- A3: inhibition of radioligand binding, human melanocortin (MC3) (Human Melanocortin (MC3); 10 µM): + (“+” indicates greater than 50% inhibition at 10 μM)
- A4: inhibition of radioligand binding, human melanocortin (MC4) (Human Melanocortin (MC4); 10 µM): + (“+” indicates greater than 50% inhibition at 10 μM)
- A5: inhibition of radioligand binding, human melanocortin (MC5) (Human melanocortin (MC5); 10 µM): + (“+” indicates greater than 50% inhibition at 10 μM)
- A6: inhibition of radioligand binding, human melanin-concentrating hormone (MCH1) ([1]; [125I]-S36057, 10 µM): + (“+” indicates greater than 50% inhibition at 10 μM)
- A7: inhibition of radioligand binding, human μ-opioid (MOP) (Human μ-opioid (MOP)): − (“−” indicates less than 50% inhibition at 10 μM)
- A8: inhibition of radioligand binding, human neurokinin (NK1) (Human neurokinin (NK1)): + (“+” indicates greater than 50% inhibition at 10 μM)
- A9: inhibition of radioligand binding, human neuropeptide Y (NPY-Y1) [2]: − (“−” indicates less than 50% inhibition at 10 μM)
- A10: inhibition of radioligand binding, human opioid (ORL1) (Human opioid (ORL1)): − (“−” indicates less than 50% inhibition at 10 μM)
- A11: inhibition of radioligand binding, mouse urotensin (mUR2) (Mouse urotensin (mUR2)): − (“−” indicates less than 50% inhibition at 10 μM)

SMILES: COC[C@H]1OC(OCc2ccc(-c3ccccc3)cc2)[C@H](NC(=O)CCCNC(=N)N)[C@@H](OCc2cccc(O)c2)[C@@H]1O (stereo partly shown) [compound 132]
- A1 radioligand binding, percentage inhibition (Human δ-opioid (DOP)): − (“−” indicates less than 50% inhibition at 10 μM)
- A2 radioligand binding, percentage inhibition (Human κ-Opioid (KOP)): + (“+” indicates greater than 50% inhibition at 10 μM)
- A3 radioligand binding, percentage inhibition (Human Melanocortin (MC3)): − (“−” indicates less than 50% inhibition at 10 μM)
- A4 radioligand binding, percentage inhibition (Human Melanocortin (MC4)): − (“−” indicates less than 50% inhibition at 10 μM)
- A5 radioligand binding, percentage inhibition (Human melanocortin (MC5)): − (“−” indicates less than 50% inhibition at 10 μM)
- A6 radioligand binding, percentage inhibition ([1]; [125I]-S36057): − (“−” indicates less than 50% inhibition at 10 μM)
- A7 radioligand binding, percentage inhibition (Human μ-opioid (MOP)): + (“+” indicates greater than 50% inhibition at 10 μM)
- A8 radioligand binding, percentage inhibition (Human neurokinin (NK1)): − (“−” indicates less than 50% inhibition at 10 μM)
- A9 radioligand binding, percentage inhibition [2]: − (“−” indicates less than 50% inhibition at 10 μM)
- A10 radioligand binding, percentage inhibition (Human opioid (ORL1)): − (“−” indicates less than 50% inhibition at 10 μM)
- A11 radioligand binding, percentage inhibition (Mouse urotensin (mUR2)): − (“−” indicates less than 50% inhibition at 10 μM)

SMILES: NCCC(=O)NC1C(OCc2ccc3ccccc3c2)OC(COCc2ccc(Cl)cc2)C(O)C1OCc1ccccc1 (single isomer, unassigned) [compound 452]
- A1: inhibition of radioligand binding (Human δ-opioid (DOP); human DOP membranes): − (“−” indicates less than 50% inhibition at 10 μM)
- A2: inhibition of radioligand binding (Human κ-Opioid (KOP); human KOP membranes): − (“−” indicates less than 50% inhibition at 10 μM)
- A3: inhibition of radioligand binding (Human Melanocortin (MC3); human MC3 membranes, 10 µM): − (“−” indicates less than 50% inhibition at 10 μM)
- A4: inhibition of radioligand binding (Human Melanocortin (MC4); human MC4 membranes): + (“+” indicates greater than 50% inhibition at 10 μM)
- A5: inhibition of radioligand binding (Human melanocortin (MC5); human MC5 membranes): + (“+” indicates greater than 50% inhibition at 10 μM)
- A6: inhibition of radioligand binding ([1]; [125I]-S36057, human MCH1 membranes, 10 µM): − (“−” indicates less than 50% inhibition at 10 μM)
- A7: inhibition of radioligand binding (Human μ-opioid (MOP); human MOP membranes): − (“−” indicates less than 50% inhibition at 10 μM)
- A8: inhibition of radioligand binding (Human neurokinin (NK1); human NK1 membranes): + (“+” indicates greater than 50% inhibition at 10 μM)
- A9: inhibition of radioligand binding ([2]; human NPY-Y1 membranes): − (“−” indicates less than 50% inhibition at 10 μM)
- A10: inhibition of radioligand binding (Human opioid (ORL1); human ORL1 membranes, 10 µM): − (“−” indicates less than 50% inhibition at 10 μM)
- A11: inhibition of radioligand binding (Mouse urotensin (mUR2); mouse mUR2 membranes): − (“−” indicates less than 50% inhibition at 10 μM)
